From EP0039860A1, “Surfactants, their preparation and their use in cosmetic cleansing compositions, and cosmetic cleansing compositions mild to the skin containing them” (Henkel Kommanditgesellschaft auf Aktien, priority 1980, dated 1981)

Test system: Zein
Test: Zein test (skin compatibility: nitrogen solubilised from zein by surfactant solution, micro-Kjeldahl)
Design: species or system Mais
Settings: 20 %ig surfactant solution, pH 7; 40 ml with 2 g Zein, 1 Stunde, 35° C; lower Zein number = better skin compatibility
Excerpt: Zur Bestimmung der Hautfreundlichkeit der erfindungsgemäßen neuartigen Tenside wurde der Zein-Test durchgeführt. Als Testprodukt diente das Neutralisationsprodukt von Fettalkohol-C12-C14-ether-monoschwefelsäureester mit circa 2 Mol Ethylenoxid mit N-ß-Hydroxyethyl-N-methyl- glucamin (Produkt A). Als Vergleichssubstanzen dienten Nonylbenzolsulfonat (Na-Salz), Natriumlaurylsulfat und Natrium-Fettalkohol-C12-C14-ethersulfat mit 2-Ethylenoxidgruppen im Molekül.
Die bei dem Zeintest erhaltene Zeinzahl gibt an, wieviel mg Stickstoff in 100 ml einer Tensidlösung enthalten sind, wenn diese 1 Stunde lang bei 35° C mit 2 g Zein versetzt wird. Je niedriger die Zeinzahl, um so besser ist die Hautverträglichieit des Produktes. Der Zein-Test wird in der nachfolgend beschriebenen Weise durchgeführt:
1. Ansetzen der Stammlösunsen:
Die 1/20 n Natronlauge wird mit Benzoesäure (DAB 6) eingestellt. Dazu werden circa 40 bis 50 mg Benzoesäure in einen 100 ml Erlenmeyerkolben eingewogen. und in ungefähr 25 ml neutralisiertem Ethylalkohol gelöst. Zum Neutralisieren wird der Alkohol mit einigen Tropfen verdünnter Natronlauge gegen Phenolphthalein bis zur bleibenden Rosafärbung versetzt. Die gelöste Benzoesäure wird nun mit der 1/20 n Natronlauge bis zur bleibenden Rosafärbung titriert und der Faktor berechnet: [drawing 2]
1.2. Schwefelsäure 1/20 n
Aus einer Mikrobürette läßt man 10 ml der 1/20 n Schwefelsäure in einen 100 ml Erlenmeyerkolben einlaufen, gibt 5 Tropfen Tashiro-Indikator hinzu und bringt die Vorlage am Destillierapparat an. In den Destillierkolben gibt man 20 ml 25 %ige Natronlauge, verdünnt mit destilliertem Wasser bis zur Hälfte des Volumens und destilliert 7 bis 10 Minuten. Die Vorlage wird nun abgenommen, und, nachdem mit etwas destilliertem Wasser das in Schwefelsäure eintauchende Glasrohr abgespült wurde, titriert man mit 1/20 n Natronlauge von violett auf blaugrün. Der erhaltene Wert ist der Blind-_ wert, der auch gleichzeitig eine Kontrolle des Destillier-Apparates ist und regelmäßig bestimmt wird. Diese Zahl wird der Berechnung des Stickstoffgehaltes zugrunde gelegt.
[…] Methylrot in 300 ml Ethanol und 0,40 g Methylenblau in 400 ml 50 %igem Ethanol.
1.4. 25 %ige Natronlauge aus NaOH-Plätzchen.
1.5. Das zu prüfende Tensid wird als x-prozentige Lösung mit destilliertem Wasser angesetzt und auf pH 7 eingestellt.
2. Aufbereitung des Zein:
Das verwendete Zein aus Mais (MG 20.000 - 30.000; ~98,5 % Protein) wird im Vakuumtrockenschrank bei maximal 40° C bis zur Gewichtskonstanz getrocknet.
3. Durchführung des Tests:
In eine 50 ml-Enghalsflasche mit Schraubverschluß werden 40 ml Tensidlösung pipettiert und in einem Wasserbad auf 35° C temperiert. […]

Row | Compound | Zein-Zahl [mg Stickstoff in 100 ml]
1 | CCCCCCCCCCCCOS(=O)(=O)O [Natriumlaurylsulfat] | 535
2 | Natrium-Fettalkohol-C12-C14-ethersulfat mit 2-Ethylenoxidgruppen im Molekül [Fettalkohol-C12-C14-ethersulfat mit 2 EO] | 329
3 | Neutralisationsprodukt aus N-β-Hydroxyethyl-N-methylglucamin und Fettalkohol-C12-C14-ethermonoschwefelsäureester mit circa 2 Mol Ethylenoxid | 223
4 | Nonylbenzolsulfonat (Na-Salz) | 620
